{
  "source": "patent US7138361B2",
  "about": "“Herbicidal heterocycles” (E. I. du Pont de Nemours and Company, priority 2000, dated 2006)",
  "type_in_all_cases": "in vivo",
  "key": {"[1]": {"test_system": "Surinam grass (Brachiaria decumbens)", "experiment": "Test C preemergence", "settings": "for Plant response rating, Surinam grass: scale 0 to 100, 0 no effect, 100 complete control; for Plant response rating (0 to 100), Surinam grass: visual evaluation after 12 to 14 days", "source_text": "(§1) Seeds of plant species selected from bermudagrass (Cynodon dactylon), Surinam grass (Brachiaria decumbens), cocklebur (Xanthium strumarium), corn (Zea mays), crabgrass (Digitaria sanguinalis), woolly cupgrass (Eriochloa villosa), giant foxtail (Setaria faberii), goosegrass (Eleusine indica), johnsongrass (Sorghum halepense), kochia (Kochia scoparia), lambsquarters (Chenopodium album), morningglory (Ipomoea hederacea), yellow nutsedge (Cyperus esculentus), pigweed (Amaranthus retroflexus), common ragweed (Ambrosia elatior), soybean (Glycine max) and velvetleaf (Abutilon theophrasti) were planted and treated preemergence with test chemicals formulated in a non-phytotoxic solvent mixture which included a surfactant.\n(§2) At the same time, plants selected from these crop and weed species and also winter barley (Hordeum vulgare), blackgrass (Alopecurus myosuroides), canary grass (Phalaris minor), chickweed (Stellaria media), downy brome (Bromus tectorum), green foxtail (Setaria viridis), Italian ryegrass (Lolium multiflorum), wheat (Triticum aestivum), wild oat (Avena fatua) and windgrass (Apera spica-venti) were treated with postemergence applications of some of the test chemicals formulated in the same manner. Plants ranged in height from 2 to 18 cm (1- to 4-leaf stage) for postemergence treatments. Plant species in the flooded paddy test consisted of rice (Oryza saliva), smallflower flatsedge (Cyperus difformis), duck salad (Heteranthera limosa) and barnyardgrass (Echinochloa crus-galli) grown to the 2-leaf stage for testing. Treated plants and controls were maintained in a greenhouse for 12 to 14 days, after which time all species were compared to controls and visually evaluated. Plant response ratings, summarized in Table C, are based on a scale of 0 to 100 where 0 is no effect and 100 is complete control. A dash (-) response means no test result."}, "[2]": {"test_system": "goosegrass (Eleusine indica)", "experiment": "Test C preemergence", "settings": "for Plant response rating, Goosegrass: scale 0 to 100, 0 no effect, 100 complete control; for Plant response rating (0 to 100), Goosegrass: visual evaluation after 12 to 14 days", "source_text": "as §1, §2"}, "[3]": {"test_system": "velvetleaf (Abutilon theophrasti)", "experiment": "Test C preemergence", "settings": "preemergence; for Plant response rating, Velvetleaf: scale 0 to 100, 0 no effect, 100 complete control", "source_text": "as §1, §2"}, "[4]": {"test_system": "crabgrass (Digitaria sanguinalis)", "experiment": "Test C preemergence", "settings": "for Plant response rating, Crabgrass: scale 0 to 100, 0 no effect, 100 complete control; for Plant response rating (0 to 100), Crabgrass: visual evaluation after 12 to 14 days", "source_text": "as §1, §2"}, "[5]": {"test_system": "cocklebur (Xanthium strumarium)", "experiment": "Test C preemergence", "settings": "for Plant response rating, Cocklebur: scale 0 to 100, 0 no effect, 100 complete control; for Plant response rating (0 to 100), Cocklebur: visual evaluation after 12 to 14 days", "source_text": "as §1, §2"}, "[6]": {"test_system": "giant foxtail (Setaria faberii)", "experiment": "Test C preemergence", "settings": "for Plant response rating, Foxtail, Giant: scale 0 to 100, 0 no effect, 100 complete control; for Plant response rating (0 to 100), Foxtail, Giant: visual evaluation after 12 to 14 days", "source_text": "as §1, §2"}, "[7]": {"test_system": "bermudagrass (Cynodon dactylon)", "experiment": "Test C preemergence", "settings": "for Plant response rating, Bermudagrass: scale 0 to 100, 0 no effect, 100 complete control; for Plant response rating (0 to 100 where 0 is no effect and 100 is complete control), Bermudagrass: visual evaluation after 12 to 14 days", "source_text": "as §1, §2"}, "[8]": {"test_system": "common ragweed (Ambrosia elatior)", "experiment": "Test C preemergence", "settings": "preemergence; for Plant response rating, Ragweed, Common: scale 0 to 100, 0 no effect, 100 complete control", "source_text": "as §1, §2"}, "[9]": {"test_system": "morningglory (Ipomoea hederacea)", "experiment": "Test C preemergence", "settings": "for Plant response rating, Morningglory: scale 0 to 100, 0 no effect, 100 complete control", "source_text": "as §1, §2"}, "[10]": {"test_system": "Surinam grass (Brachiaria decumbens)", "experiment": "Test B preemergence", "in_short": "(§3)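 Post-treatment, species sat 13–15 days under greenhouse conditions before visual scoring against controls, 0 (no effect) through 100 (complete control). Application preemergence to sown seeds or postemergence at 1- to 4-leaf stage, using a non-phytotoxic solvent/surfactant formulation.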"}, "[11]": {"test_system": "barnyardgrass (Echinochloa crus-galli)", "experiment": "Test B preemergence", "in_short": "as §3"}, "[12]": {"test_system": "velvetleaf (Abutilon theophrasti)", "experiment": "Test B preemergence", "in_short": "as §3"}, "[13]": {"test_system": "crabgrass (Digitaria sanguinalis)", "experiment": "Test B preemergence", "in_short": "as §3"}, "[14]": {"test_system": "rice (Oryza saliva)", "experiment": "Test B preemergence", "in_short": "as §3"}, "[15]": {"test_system": "pigweed (Amaranthus retroflexus)", "experiment": "Test B preemergence", "in_short": "as §3"}, "[16]": {"test_system": "lambsquarters (Chenopodium album)", "experiment": "Test B preemergence", "in_short": "as §3"}, "[17]": {"test_system": "cocklebur (Xanthium strumarium)", "experiment": "Test B preemergence", "in_short": "as §3"}, "[18]": {"test_system": "giant foxtail (Setaria faberii)", "experiment": "Test B preemergence", "in_short": "as §3"}, "[19]": {"test_system": "morning glory (Ipomoea hederacea)", "experiment": "Test B preemergence", "in_short": "as §3"}, "[20]": {"test_system": "corn (Zea mays)", "experiment": "Test B preemergence", "in_short": "as §3"}, "[21]": {"test_system": "Sunflower", "experiment": "Test C preemergence", "settings": "Rate 500 g/ha, visual evaluation after 12 to 14 days"}, "[22]": {"settings": "Rate 500 g/ha, visual evaluation after 12 to 14 days"}, "[23]": {"settings": "Preemergence, Rate 500 g/ha, scale 0 to 100, 0 no effect, 100 complete control"}, "[24]": {"settings": "preemergence, Rate 125 g/ha, scale of 0 to 100 where 0 is no effect and 100 is complete control, 13 to 15 days"}},
  "data": [
    {"smiles": "CC1(c2ccn(C3SCN(c4cccc(OC(F)(F)F)c4)C3=O)n2)CC1", "note": "(stereo not drawn) [Compound 63]", "values": [
      {"measurement": "Plant response rating, Surinam grass", "setting": "[1]; Rate 62 g/ha", "value": 20},
      {"measurement": "Plant response rating (0 to 100), Surinam grass", "setting": "[1]; preemergence, Rate 250 g/ha", "value": 70},
      {"measurement": "Plant response rating (0 to 100), Surinam grass", "setting": "[1]; preemergence, Rate 500 g/ha", "value": 100},
      {"measurement": "Plant response rating, Surinam grass", "setting": "[1]; preemergence, Rate 125 g/ha", "value": 20},
      {"measurement": "Plant response rating, Goosegrass", "setting": "[2]; Rate 62 g/ha", "value": 100},
      {"measurement": "Plant response rating (0 to 100), Goosegrass", "setting": "[2]; preemergence, Rate 250 g/ha", "value": 100},
      {"measurement": "Plant response rating (0 to 100), Goosegrass", "setting": "[2]; preemergence, Rate 500 g/ha", "value": 100},
      {"measurement": "Plant response rating, Goosegrass", "setting": "[2]; preemergence, Rate 125 g/ha", "value": 100},
      {"measurement": "Plant response rating (0 to 100), Velvetleaf", "setting": "[3]; [22]", "value": 50},
      {"measurement": "Plant response rating, Velvetleaf", "setting": "[3]; Rate 125 g/ha", "value": 0},
      {"measurement": "Plant response rating, Velvetleaf", "setting": "[3]; Rate 250 g/ha", "value": 30},
      {"measurement": "Plant response rating, Crabgrass", "setting": "[4]; Rate 62 g/ha", "value": 100},
      {"measurement": "Plant response rating (0 to 100), Crabgrass", "setting": "[4]; preemergence, Rate 250 g/ha", "value": 100},
      {"measurement": "Plant response rating (0 to 100), Crabgrass", "setting": "[4]; preemergence, Rate 500 g/ha", "value": 100},
      {"measurement": "Plant response rating, Crabgrass", "setting": "[4]; preemergence, Rate 125 g/ha", "value": 100},
      {"measurement": "Plant response rating, Cocklebur", "setting": "[5]; Rate 62 g/ha", "value": 0},
      {"measurement": "Plant response rating (0 to 100), Cocklebur", "setting": "[5]; preemergence, Rate 250 g/ha", "value": 30},
      {"measurement": "Plant response rating (0 to 100), Cocklebur", "setting": "[5]; preemergence, Rate 500 g/ha", "value": 30},
      {"measurement": "Plant response rating, Cocklebur", "setting": "[5]; preemergence, Rate 125 g/ha", "value": 0},
      {"measurement": "Plant response rating, Foxtail, Giant", "setting": "[6]; Rate 62 g/ha", "value": 20},
      {"measurement": "Plant response rating (0 to 100), Foxtail, Giant", "setting": "[6]; preemergence, Rate 250 g/ha", "value": 100},
      {"measurement": "Plant response rating (0 to 100), Foxtail, Giant", "setting": "[6]; preemergence, Rate 500 g/ha", "value": 100},
      {"measurement": "Plant response rating, Foxtail, Giant", "setting": "[6]; preemergence, Rate 125 g/ha", "value": 90},
      {"measurement": "Plant response rating, Bermudagrass", "setting": "[7]; Rate 62 g/ha", "value": 100},
      {"measurement": "Plant response rating (0 to 100 where 0 is no effect and 100 is complete control), Bermudagrass", "setting": "[7]; preemergence, Rate 250 g/ha", "value": 100},
      {"measurement": "Plant response rating (0 to 100 where 0 is no effect and 100 is complete control), Bermudagrass", "setting": "[7]; preemergence, Rate 500 g/ha", "value": 100},
      {"measurement": "Plant response rating, Bermudagrass", "setting": "[7]; preemergence, Rate 125 g/ha", "value": 100},
      {"measurement": "Plant response rating (0 to 100), Ragweed, Common", "setting": "[8]; [22]", "value": 90},
      {"measurement": "Plant response rating, Ragweed, Common", "setting": "[8]; Rate 125 g/ha", "value": 50},
      {"measurement": "Plant response rating, Ragweed, Common", "setting": "[8]; Rate 250 g/ha", "value": 50},
      {"measurement": "Plant response rating, Morningglory", "setting": "[9]; Rate 62 g/ha", "value": 0},
      {"measurement": "Plant response rating (0 to 100), Morningglory", "setting": "[9]; preemergence, Rate 500 g/ha, visual evaluation after 12 to 14 days", "value": 40},
      {"measurement": "Plant response rating, Morningglory", "setting": "[9]; preemergence, Rate 125 g/ha", "value": 20},
      {"measurement": "Plant response rating, Morningglory", "setting": "[9]; preemergence, Rate 250 g/ha", "value": 30},
      {"measurement": "Plant response rating, Surinam grass", "setting": "[10]; [23]", "value": 30},
      {"measurement": "Plant response rating, Surinam grass", "setting": "[10]; [24]", "value": 0},
      {"measurement": "Plant response rating, Barnyardgrass", "setting": "[11]; [23]", "value": 90},
      {"measurement": "Plant response rating, Barnyardgrass", "setting": "[11]; [24]", "value": 50},
      {"measurement": "Plant response rating, Velvetleaf", "setting": "[12]; [23]", "value": 0},
      {"measurement": "Plant response rating, Velvetleaf", "setting": "[12]; [24]", "value": 0},
      {"measurement": "Plant response rating, Crabgrass", "setting": "[13]; [23]", "value": 100},
      {"measurement": "Plant response rating, Crabgrass", "setting": "[13]; [24]", "value": 0},
      {"measurement": "Plant response rating, Rice", "setting": "[14]; [23]", "value": 0},
      {"measurement": "Plant response rating, Rice", "setting": "[14]; [24]", "value": 0},
      {"measurement": "Plant response rating, Pigweed", "setting": "[15]; [23]", "value": 100},
      {"measurement": "Plant response rating, Pigweed", "setting": "[15]; [24]", "value": 100},
      {"measurement": "Plant response rating, Lambsquarters", "setting": "[16]; [23]", "value": 100},
      {"measurement": "Plant response rating, Lambsquarters", "setting": "[16]; [24]", "value": 100},
      {"measurement": "Plant response rating, Cocklebur", "setting": "[17]; [23]", "value": 0},
      {"measurement": "Plant response rating, Cocklebur", "setting": "[17]; [24]", "value": 0},
      {"measurement": "Plant response rating, Foxtail, Giant", "setting": "[18]; [23]", "value": 90},
      {"measurement": "Plant response rating, Foxtail, Giant", "setting": "[18]; [24]", "value": 50},
      {"measurement": "Plant response rating, Morningglory", "setting": "[19]; [23]", "value": 0},
      {"measurement": "Plant response rating, Morningglory", "setting": "[19]; [24]", "value": 0},
      {"measurement": "Plant response rating, Corn", "setting": "[20]; [23]", "value": 0},
      {"measurement": "Plant response rating, Corn", "setting": "[20]; [24]", "value": 0},
      {"measurement": "Plant response rating (0 to 100), Sunflower", "setting": "[21]", "value": 60}
    ]}
  ]
}
